Laboratory results taken from patent US20090099169A1, “Benzofuran Compounds As EP1 Receptor Antagonists” (GLAXO GROUP LIMITED, priority 2006, published 2009).
Counter-ions that a name gives are not always drawn.

Legend:
[1] = target: T1, human EP3 receptor (Homo sapiens, UniProt P43115); assay: human EP3 calcium mobilisation assay; format: cell-based; conditions: CHO-K1 cells, antagonism of PGE2; averages of a number of experiments; read-out: functional pKi value (human EP3 calcium mobilisation assay) (converted)
T1 construct: expressed in transfected cells; host or cells: CHO-K1
T1 sequence (P43115 1-390): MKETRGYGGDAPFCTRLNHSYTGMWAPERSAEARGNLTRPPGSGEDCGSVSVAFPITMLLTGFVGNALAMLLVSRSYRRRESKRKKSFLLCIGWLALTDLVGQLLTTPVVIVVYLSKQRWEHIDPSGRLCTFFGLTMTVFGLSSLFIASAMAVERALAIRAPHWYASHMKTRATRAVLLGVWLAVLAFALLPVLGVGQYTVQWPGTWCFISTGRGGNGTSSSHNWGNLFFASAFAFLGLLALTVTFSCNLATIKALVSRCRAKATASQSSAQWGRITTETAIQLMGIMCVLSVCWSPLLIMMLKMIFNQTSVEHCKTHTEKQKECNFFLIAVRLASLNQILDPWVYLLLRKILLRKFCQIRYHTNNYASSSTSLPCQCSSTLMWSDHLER
Outline: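 CHO-K1 cells stably transfected with human EP1 or EP3, loaded with Fluo-4 after 24 h culture, treated with compound, then challenged with PGE2. Calcium-driven fluorescence read on FLIPR; pIC50 is half-maximal inhibition of PGE2-induced calcium mobilisation, from curve fitting.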

[2] = target: T2, human TP receptor (Homo sapiens, UniProt P21731); assay: human TP calcium mobilisation assay; format: cell-based; conditions: CHO-K1 cells, antagonism of U46619; averages of a number of experiments; read-out: functional pKi value (human TP calcium mobilisation assay) (converted)
T2 construct: expressed in transfected cells; host or cells: CHO-K1
T2 sequence (P21731 1-343): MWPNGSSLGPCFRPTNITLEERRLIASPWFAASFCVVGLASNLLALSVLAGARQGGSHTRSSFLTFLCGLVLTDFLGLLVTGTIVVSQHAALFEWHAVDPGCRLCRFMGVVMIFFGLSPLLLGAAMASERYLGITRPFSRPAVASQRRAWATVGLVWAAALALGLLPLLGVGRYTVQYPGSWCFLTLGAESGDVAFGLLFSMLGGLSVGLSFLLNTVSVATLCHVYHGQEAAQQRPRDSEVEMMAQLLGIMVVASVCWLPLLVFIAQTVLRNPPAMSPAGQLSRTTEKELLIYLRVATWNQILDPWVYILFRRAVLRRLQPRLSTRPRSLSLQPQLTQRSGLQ
Experimental: To determine if a compound has agonist or antagonist activity at the TP receptor a functional calcium mobilisation assay may be performed. Briefly, the antagonist properties of compounds are assessed by their ability to inhibit the mobilisation of intracellular calcium ([Ca^2+]i) in response to activation of TP receptors by the stable TXA2 mimetic U46619 (9,11-dideoxy-11α,9α-epoxy-methanoprostaglandin F2α; commercially available from e.g Sigma-Aldrich). Increasing concentrations of antagonist reduce the amount of calcium that a given concentration of U46619 can mobilise. The net effect is to displace the U46619 concentration-effect curve. The amount of calcium produced is assessed using a calcium-sensitive fluorescent dye such as Fluo-4, AM and a suitable instrument such as a Fluorimetric Imaging Plate Reader (FLIPR). Increasing amounts of [Ca^2+]i produced by receptor activation increase the amount of fluorescence produced by the dye and give rise to an increasing signal. The signal may be detected using the FLIPR instrument and the data generated may be analysed with suitable curve-fitting software. The agonist activity of the compounds are determined by their ability to cause an increase in intracellular mobilisation in the absence of U46619.
The human TP calcium mobilisation assay utilises Chinese hamster ovary-K1 (CHO-K1) cells into which a stable (pCIN; BioTechniques 20 (1996): 102-110) vector containing TP cDNA has previously been transfected. Cells are cultured in suitable flasks containing culture medium such as DMEM:F-12 supplemented with 10% v/v foetal calf serum, 2 mM L-glutamine, 0.25 mg/ml geneticin, 100 μM flurbiprofen and 10 μg/ml puromycin.
For assay, cells are harvested using a proprietary reagent that dislodges cells such as Versene. Cells are re-suspended in a suitable quantity of fresh culture media for introduction into a 96-well plate. Following incubation for 24 hours at 37° C. the culture media is replaced with a medium containing Fluo-4 and the detergent pluronic acid, and a further incubation takes place. Concentrations of compounds are then added to the plate in order to construct concentration-effect curves. This may be performed on the FLIPR in order to assess the agonist properties of the compounds. Concentrations of U46619 are then added to the plate in order to assess the antagonist properties of the compounds.
The data so generated may be analysed by means of a computerised curve-fitting routine. The concentration of compound that elicits a half-maximal inhibition of the calcium mobilisation induced by U46619 (pIC50) may then be estimated, and the percentage activation caused by the compounds directly can be used to determine if there is any agonism present.

Compound | Ki [1] [µM] | Ki [2] [µM]
CC(C)c1cc2cc(Cl)cc(Cc3ccc(C(=O)O)o3)c2o1 [Example 1, 5-{[5-Chloro-2-(1-methylethyl)-1-benzofuran-7-yl]methyl}-2-furancarboxylic Acid] | 0.501 to 10 | < 0.0316
Cc1cc(C(=O)O)nn1Cc1cc(Cl)cc2cc(C(C)C)oc12 [Example 3, 1-{[5-Chloro-2-(1-methylethyl)-1-benzofuran-7-yl]methyl}-5-methyl-1H-pyrazole-3-carboxylic Acid] | 0.501 to 10 | < 3.16
CCNCc1ccc(NC(=O)c2cc(C)n(Cc3cc(Cl)cc4cc(C(C)C)oc34)n2)cc1 [Example 15, 1-{[5-Chloro-2-(1-methylethyl)-1-benzofuran-7-yl]methyl}-N-{4-[(ethylamino)methyl]phenyl}-5-methyl-1H-pyrazole-3-carboxamide hydrochloride] | – | > 3.16
Cc1cc(C(=O)Nc2ccc(CN3CCC(O)CC3)cc2)nn1Cc1cc(Cl)cc2cc(C(C)C)oc12 [Example 16, 1-{[5-Chloro-2-(1-methylethyl)-1-benzofuran-7-yl]methyl}-N-{4-[(4-hydroxy-1-piperidinyl)methyl]phenyl}-5-methyl-1H-pyrazole-3-carboxamide hydrochloride] | – | > 3.16
Cc1cc(C(=O)Nc2ccc(CN3CC[C@@H](O)C3)cc2)nn1Cc1cc(Cl)cc2cc(C(C)C)oc12 [Example 17, 1-{[5-Chloro-2-(1-methylethyl)-1-benzofuran-7-yl]methyl}-N-(4-{[(3R)-3-hydroxy-1-pyrrolidinyl]methyl}phenyl)-5-methyl-1H-pyrazole-3-carboxamide hydrochloride] | – | > 3.16
Cc1cc(C(=O)NN2CCOCC2)nn1Cc1cc(Cl)cc2cc(C3CCCCC3)oc12 [Example 28, 1-[(5-Chloro-2-cyclohexyl-1-benzofuran-7-yl)methyl]-5-methyl-N-4-morpholinyl-1H-pyrazole-3-carboxamide] | – | > 3.16
